Assay results reported in the NIST ThermoML archive (doi:10.1016/j.jct.2013.05.024).
Numbers after ± are expanded uncertainties.

Conditions: 101.3 kPa, Liquid, Vibrating tube method

SMILES: CCOC(=O)C(=O)OCC [diethyl ethanedioate]
- mass density (278.15 K): 1095.94 ± 0.31 kg/m3
- mass density (288.14 K): 1084.24 ± 0.3 kg/m3
- mass density (298.15 K): 1072.53 ± 0.29 kg/m3
- mass density (313.15 K): 1054.92 ± 0.27 kg/m3
- mass density (328.15 K): 1037.26 ± 0.26 kg/m3
- mass density (338.15 K): 1025.42 ± 0.25 kg/m3
- mass density (348.15 K): 1013.53 ± 0.24 kg/m3
- mass density (358.15 K): 1001.6 ± 0.23 kg/m3
